Test results from paper PMC4805251, “Novel Antimicrobial Peptides EeCentrocins 1, 2 and EeStrongylocin 2 from the Edible Sea Urchin Echinus esculentus Have 6-Br-Trp Post-Translational Modifications” (PLoS ONE, 2016).
“And” between values parts separate entries of the source, which are not always exact repeats. Equal values may be shown once. Read-outs that look alike come from different tables or passages of the source. Ends that are not written are not given here.

What was measured:
Assay type in all cases: cell-based
[1] = test system: Bacillus subtilis (ATCC 23857)
From the text: (§1) Organic phase extract, SPE eluates and HPLC-fractions were screened for antibacterial activity against two strains of Gram-positive and two strains of Gram-negative bacteria; Corynebacterium glutamicum (ATCC 13032), Staphylococcus aureus (ATCC 9144), Pseudomonas aeruginosa #1 (ATCC 27853) and Escherichia coli #1 (ATCC 25922). For extended antimicrobial bioactivity screening, the following bacterial strains were used, three strains of Gram-positive bacteria; S. epidermidis #1 (5179-R1) kindly provided by Holger Rohde, S. epidermidis #2, RP62A (ATCC 35984) and Bacillus subtilis (ATCC 23857) in addition to the Gram-negative P. aeruginosa #2, PA 01 (ATCC 15692, DSM 19880) and E. coli #2, NR 698 (MC4100/ptD4213).
(§2) Cultures stored at -80°C were smeared onto agar plates and cultured for 24 h at 35°C. One colony of each bacterial strain was transferred to 5 ml liquid Müller-Hinton (MH, Difco, Lawrence, KS, USA) medium in a glass tube and left shaking at room temperature overnight at 600 rpm. The cultures of actively growing bacteria (20 μl) were further inoculated in 5 ml MH medium and left shaking for 2 h at room temperature. The antibacterial assays were performed as previously described by. Briefly, the bacterial cultures were diluted with medium to 1.3–1.5 × 10^4 bacteria/ml final concentrations and an aliquot of 50 μl was added to each well in 96-well Nunclon^TM microtiter plates (Nagle Nunc Int., Denmark) preloaded with 50 μl test sample solutions, i.e. extracts, eluates or peptides.
(§3) The test plates were incubated for 24 h at 35°C with optical density (OD595) recorded every hour using an Envision 2103 multilabel reader, controlled by the Wallac Envision manager (PerkinElmer, CT, USA). Antibacterial activity was defined as a sample showing >90% inhibition (as measured by optical density) compared to the negative (growth) controls, consisting of bacteria and water. Oxytetracycline (20 μM) served as a positive (inhibition) control. The minimum inhibitory concentration (MIC) was defined as the lowest concentration of a sample displaying >90% inhibition.
(§4) ACN-phases and SPE eluates were tested with two-fold serial dilutions ranging from 5.0 to 0.005 mg/ml (5.0, 2.5, 1.25, 0.63, 0.31, 0.16, 0.08, 0.04, 0.02, 0.01, 0.005 mg/ml) whereas HPLC-fractions were tested undiluted for antibacterial activity. Pure, native peptides and synthetic peptides (described in section 2.11) were tested for antimicrobial activity in concentrations ranging from 100 to 0.1 μM in two-fold serial dilutions (100, 50, 25, 12.5, 6.25, 3.13, 1.56, 0.78, 0.39, 0.20, 0.10 μM). Antimicrobial assays involving natural peptides (i.e. fractionated natural material) were run only once due to limited quantities, whereas all other assays were run in triplicates.

[2] = test system: Corynebacterium glutamicum (ATCC 13032)
From the text: as §1, §2, §3, §4

[3] = test system: E. coli #2, NR 698 (MC4100/ptD4213)
From the text: as §1, §2, §3, §4

[4] = test system: Escherichia coli #1 (ATCC 25922)
From the text: as §1, §2, §3, §4

[5] = test system: P. aeruginosa #2, PA 01 (ATCC 15692, DSM 19880)
From the text: as §1, §2, §3, §4

[6] = test system: Pseudomonas aeruginosa #1 (ATCC 27853)
From the text: as §1, §2, §3, §4

[7] = test system: S. epidermidis #1 (5179-R1)
From the text: as §1, §2, §3, §4

[8] = test system: S. epidermidis #2, RP62A (ATCC 35984)
From the text: as §1, §2, §3, §4

[9] = test system: Staphylococcus aureus (ATCC 9144)
From the text: as §1, §2, §3, §4

human red blood cells = test: Haemolytic activity assay; details: human red blood cells in PBS, 1 h at 37°C, absorbance at 550 nm, 0.05% Triton X-100 = 100%, duplicates
Experimental: Synthesised peptide analogues of EeCentrocin 1 and 2 were screened for eukaryotic cell-toxicity with a haemolytic activity assay using human red blood cells as described previously. The assay was performed on 96-well U-shaped microtiter plates (Nagle Nunc) with 50 μl peptide sample, 40 μl phosphate-buffered saline (PBS) and 10 μl red blood cells. The final peptide concentrations ranged from 100 to 0.1 μM in two-fold serial dilutions. After one hour of incubation at 37°C in a shaker, the plate was centrifuged at 200 g for 5 min and the supernatants (60 μl) were carefully transferred to a new flat-bottomed polycarbonate microtiter plate (Nagle Nunc) and absorbance at 550 nm was measured on a Synergy H1 multimode reader (BioTek, VT, USA). Cell suspension added 0.05% Triton X-100 (Sigma-Aldrich, MO, USA) in PBS served as positive (100% haemolysis) control and cell suspension added PBS served as negative (0% haemolysis) control. The percent haemolysis was calculated using the formula [(Asample-Abaseline)/(Atriton-Abaseline)]×100. The experiment was performed in duplicates.

[10] = MH medium, 24 h at 35°C, OD595, lowest concentration with >90% inhibition, value of Table 2, native peptides run once, synthetic in triplicates
[11] = MH medium, 24 h at 35°C, OD595, >90% inhibition, value of Table 2, triplicates
[12] = MH medium, 24 h at 35°C, OD595, >90% inhibition, value of Table 2, native peptides run once, synthetic in triplicates

**Q.** “WGHKLRSSWNKVKHAVKKGAGYASGACRVLGH [EeCentrocin 2 HC]” was tested. Which “MIC B. subtilis” value ([1]; MH medium, 24 h at 35°C, OD595, lowest concentration with >90% inhibition, value of Table 2, synthetic peptides in triplicates) did it give?
**A.** 6.25 µM

**Q.** What about the “MIC raw data B. subtilis” value ([1]; parallel 1 of three) of the same sequence?
**A.** 6.25 µM

**Q.** And the “MIC raw data B. subtilis” value ([1]; parallel 2 of three)?
**A.** 3.13 µM

**Q.** And the “MIC raw data B. subtilis” value ([1]; parallel 3 of three)?
**A.** 3.13 µM

**Q.** And the “MIC C. glutamicum” value [2, 10]?
**A.** 0.78 µM

**Q.** And the “MIC raw data C. glutamicum” value ([2]; parallel 1 of three)?
**A.** 0.78 µM

**Q.** And the “MIC raw data C. glutamicum” value ([2]; parallel 2 of three)?
**A.** 0.78 µM

**Q.** And the “MIC raw data C. glutamicum” value ([2]; parallel 3 of three)?
**A.** 0.78 µM

**Q.** And the “MIC E. coli #2” value [3, 11]?
**A.** 6.25 µM

**Q.** And the “MIC raw data E. coli #2” value ([3]; parallel 1 of three)?
**A.** 6.25 µM

**Q.** And the “MIC raw data E. coli #2” value ([3]; parallel 2 of three)?
**A.** 3.13 µM

**Q.** And the “MIC raw data E. coli #2” value ([3]; parallel 3 of three)?
**A.** 3.13 µM

**Q.** What about the “MIC E. coli #1” value [4, 12] of the same sequence?
**A.** 1.56 µM

**Q.** What about the “MIC raw data E. coli #1” value ([4]; parallel 1 of three) of the same sequence?
**A.** 1.56 µM

**Q.** What about the “MIC raw data E. coli #1” value ([4]; parallel 2 of three) of the same sequence?
**A.** 0.78 µM

**Q.** What about the “MIC raw data E. coli #1” value ([4]; parallel 3 of three) of the same sequence?
**A.** 0.78 µM

**Q.** And the “MIC P. aeruginosa #2” value [5, 11]?
**A.** 6.25 µM

**Q.** What about the “MIC raw data P. aeruginosa #2” value ([5]; parallel 1 of three) of the same sequence?
**A.** 6.25 µM

**Q.** What about the “MIC raw data P. aeruginosa #2” value ([5]; parallel 2 of three) of the same sequence?
**A.** 6.25 µM

**Q.** What about the “MIC raw data P. aeruginosa #2” value ([5]; parallel 3 of three) of the same sequence?
**A.** 3.13 µM

**Q.** And the “MIC P. aeruginosa #1” value [6, 12]?
**A.** 0.78 µM

**Q.** What about the “MIC raw data P. aeruginosa #1” value ([6]; parallel 1 of three) of the same sequence?
**A.** 0.78 µM

**Q.** And the “MIC raw data P. aeruginosa #1” value ([6]; parallel 2 of three)?
**A.** 0.78 µM

**Q.** And the “MIC raw data P. aeruginosa #1” value ([6]; parallel 3 of three)?
**A.** 0.78 µM

**Q.** What about the “MIC S. epidermidis #1” value [7, 11] of the same sequence?
**A.** 3.13 µM

**Q.** What about the “MIC raw data S. epidermidis #1” value ([7]; parallel 1 of three) of the same sequence?
**A.** 3.13 µM

**Q.** And the “MIC raw data S. epidermidis #1” value ([7]; parallel 2 of three)?
**A.** 3.13 µM

**Q.** And the “MIC raw data S. epidermidis #1” value ([7]; parallel 3 of three)?
**A.** 1.56 µM

**Q.** What about the “MIC S. epidermidis #2” value [8, 11] of the same sequence?
**A.** 3.13 µM

**Q.** What about the “MIC raw data S. epidermidis #2” value ([8]; parallel 1 of three) of the same sequence?
**A.** 3.13 µM

**Q.** And the “MIC raw data S. epidermidis #2” value ([8]; parallel 2 of three)?
**A.** 3.13 µM

**Q.** And the “MIC raw data S. epidermidis #2” value ([8]; parallel 3 of three)?
**A.** 3.13 µM

**Q.** What about the “MIC S. aureus” value [9, 10] of the same sequence?
**A.** 6.25 µM

**Q.** And the “MIC raw data S. aureus” value ([9]; parallel 1 of three)?
**A.** 6.25 µM

**Q.** What about the “MIC raw data S. aureus” value ([9]; parallel 2 of three) of the same sequence?
**A.** 6.25 µM

**Q.** And the “MIC raw data S. aureus” value ([9]; parallel 3 of three)?
**A.** 6.25 µM

**Q.** What about the “% haemolysis” value (human red blood cells; 25.0 μM) of the same sequence?
**A.** 11.7%

**Q.** And the “% haemolysis” value (human red blood cells; 50.0 μM)?
**A.** 18.9%

**Q.** What about the “% haemolysis” value (human red blood cells; 100 μM) of the same sequence?
**A.** 56.3% and 56.4%
